Test results reported in paper PMC11992618, “Development of cyclopeptide inhibitors specifically disrupting FXR–coactivator interaction in the intestine as a novel therapeutic strategy for MASH” (Life Metabolism, 2025).

Tests used:
Subacute toxicity test = format: in vivo, mouse
Description: For the subacute toxicity test of DC646, oral injection of vehicle, 20 mg/kg, 100 mg/kg, or 200 mg/kg DC646 to C57BL/6 male mice was carried out for 7 days. During the week, the body weight and food/water intake were monitored every day. The serum, liver, kidneys, brain, heart, lungs, spleen, testicle, and epididymis were weighed and collected 2 h after the final dosing.
Supplementary Figure S10 Subacute toxicity test of DC646 at 20 mg/kg, 100 mg/kg, or 200 mg/kg. (a) Strategy of animal experiment. (b) Body weight. (c) Food intake. (d) Water intake. (e) Representative pictures of organ morphologies. (f) 1/3 Intestine length and colon length. (g) Organ weight. (h and i) Serum ALT (h) and AST(i) levels. (j) H&E staining of heart, liver, spleen, lung, and kidney. n = 5 in each group. Data are presented as the mean ± SEM and analyzed by one-way ANOVA with Dunnett’s post hoc test.

[1] = system: FXR signaling (Shp) in intestinal organoids; assay: FXR target gene expression in intestinal organoids; format: cell-based, mouse; details: DC646 50 μmol/L, GW4064 10 μmol/L, 24 h
Text: Intestinal crypts were isolated from 6- to 8-week-old C57BL/6 mice and Fxr^△IE mice as previously described with minor revision. Briefly, the abdomen of the mouse was dissected, and the small intestine was isolated with fats removed. The isolated intestine was flushed with cold PBS to remove the luminal contents. Then, the intestine was opened longitudinally and washed three times with PBS gently. The tissue was cut into small fragments (2 mm^2) and further washed three times with cold PBS gently, followed by incubation with 5 mmol/L EDTA-PBS at 4°C. After 40 min, the fragments were vortexed vigorously, and then the suspension was filtered through a […] and centrifuged at 50 g for 10 min. The crypts were counted and plated with Matrigel (1:1, 25 μL) and 500 μL IntestiCult Organoid Growth Medium with Supplements 1 and 2. The isolated crypts were cultured for 3–5 days and treated with indicated chemicals as described.
The intestine and liver were frozen in liquid nitrogen and stored at −80°C. RNA was extracted, and complementary DNA was synthesized from 1 μg total RNA. RT-qPCR was performed on a Bio-Rad CFX384 Touch detection system (Bio-Rad). The primer sequences for RT-qPCR are shown in Supplementary Table S5. RNA levels were analyzed by 2-^ΔΔCt, normalized to 18S ribosomal RNA and expressed as fold change relative to the control group. […]

[2] = system: intestinal and hepatic FXR signaling; assay: In vivo intestinal FXR antagonism experiment (TCA-induced); design: species or system mouse; details: mice, oral 20 mg/kg with TCA 400 mg/kg/day, 3 doses
Description: For the in vivo intestinal FXR antagonism experiment, after a 3-day treatment with an antibiotic cocktail (1 mg/mL neomycin, 1 mg/mL streptomycin, and 1 mg/mL bacitracin) in drinking water, 8- to 10-week-old male C57BL/6 J mice were orally administered with vehicle or TCA (400 mg/kg/day), TCA combined with GUDCA (50 mg/kg), or TCA combined with DC646 (20 mg/kg) once a day. The serum, liver, and intestine were collected 2 h after the third dosing.
The intestine and liver were frozen in liquid nitrogen and stored at −80°C. RNA was extracted, and complementary DNA was synthesized from 1 μg total RNA. RT-qPCR was performed on a Bio-Rad CFX384 Touch detection system (Bio-Rad). The primer sequences for RT-qPCR are shown in Supplementary Table S5. RNA levels were analyzed by 2-^ΔΔCt, normalized to 18S ribosomal RNA and expressed as fold change relative to the control group.

PPARδ = molecular target: T1, PPARδ (Homo sapiens, UniProt Q03181); assay: PPARδ cell-based reporter assay; details: 10 μmol/L; inhibition of agonist-induced receptor activation
T1 sequence (Q03181 1-441): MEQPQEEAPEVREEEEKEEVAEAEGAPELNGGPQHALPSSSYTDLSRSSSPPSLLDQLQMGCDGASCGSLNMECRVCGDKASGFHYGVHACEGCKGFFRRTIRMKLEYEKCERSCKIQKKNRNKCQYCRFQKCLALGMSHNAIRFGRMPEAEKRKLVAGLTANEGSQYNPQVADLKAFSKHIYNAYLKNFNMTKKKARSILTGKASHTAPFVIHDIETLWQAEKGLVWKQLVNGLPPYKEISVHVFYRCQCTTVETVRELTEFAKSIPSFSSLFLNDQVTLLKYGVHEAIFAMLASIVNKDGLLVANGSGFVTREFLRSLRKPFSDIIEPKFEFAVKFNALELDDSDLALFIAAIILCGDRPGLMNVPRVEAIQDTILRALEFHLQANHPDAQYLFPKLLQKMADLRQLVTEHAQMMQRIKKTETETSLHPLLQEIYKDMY
Text: (§1) Inhibition% means inhibition percentage of agonist-induced receptor activation.

PPARγ = molecular target: T2, PPARγ (Homo sapiens, UniProt P37231); assay: PPARγ cell-based reporter assay; details: 10 μmol/L; inhibition of agonist-induced receptor activation
T2 sequence (P37231 1-505): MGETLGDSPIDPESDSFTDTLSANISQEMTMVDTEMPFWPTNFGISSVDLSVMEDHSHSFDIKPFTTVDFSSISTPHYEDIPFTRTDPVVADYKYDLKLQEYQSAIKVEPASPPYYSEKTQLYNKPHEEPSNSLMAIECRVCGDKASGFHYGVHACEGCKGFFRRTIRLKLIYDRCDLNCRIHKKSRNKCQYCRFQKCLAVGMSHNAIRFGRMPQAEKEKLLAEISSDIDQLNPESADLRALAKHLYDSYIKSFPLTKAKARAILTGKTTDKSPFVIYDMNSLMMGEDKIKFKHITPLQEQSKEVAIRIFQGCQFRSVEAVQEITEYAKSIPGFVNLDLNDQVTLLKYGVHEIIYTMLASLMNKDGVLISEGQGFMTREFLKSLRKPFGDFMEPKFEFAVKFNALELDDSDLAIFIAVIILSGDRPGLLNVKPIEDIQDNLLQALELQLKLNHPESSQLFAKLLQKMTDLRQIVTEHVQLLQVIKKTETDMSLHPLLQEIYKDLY
Text: as §1

[3] = C57BL/6 male mice, oral 20, 100, 200 mg/kg, 7 days

For `CC(C)C[C@@H]1NC(=O)[C@@H]2CN(CCO2)c2cccc3c2c(cn3[Si](C(C)C)(C(C)C)C(C)C)C[C@H](NS(=O)(=O)C(F)(F)F)C(=O)OCCCCNC(=O)[C@H](CC(C)C)NC(=O)[C@@H]2CN(CCO2)c2cccc3c2c(cn3[Si](C(C)C)(C(C)C)C(C)C)C[C@H](NS(=O)(=O)C(F)(F)F)C(=O)OCCCCNC1=O` [DC646, N,N'-((1^2R,1^4S,16^2R,16^4S,4R,13R,19R,28R)-13,28-diisobutyl-5,12,15,20,27,30-hexaoxo-2^1,17^1-bis(triisopropylsilyl)-2^1H,17^1H-6,21-dioxa-11,14,26,29-tetraaza-1(4,2),16(2,4)-dimorpholina-2,17(4,3)-diindolacyclotriacontaphane-4,19-diyl)bis(1,1,1-trifluoromethanesulfonamide)], which “Tolerated dose over minimum effective dose” value (Subacute toxicity test; 200 mg/kg versus minimum effective dose) is on record?
Its value is “more than 20 folds”.

What about the Food/water intake (Subacute toxicity test; C57BL/6 male mice, oral 200 mg/kg, 7 days, normal body weight) of the same compound?
The Food/water intake was “mildly decreased”.

What about the “Liver injury indicated by serum ALT and AST” value (Subacute toxicity test; [3]) of the same compound?
Its value is “did not cause liver injury”.

What about the “Organ morphology, small intestine and colon length, organ weight” value (Subacute toxicity test; [3]) of the same compound?
Its value is “no difference”.

And the “Body weight and food/water intake” value (Subacute toxicity test; C57BL/6 male mice, oral 20 and 100 mg/kg, 7 days)?
Its value is “did not affect”.

And the MTD at 168 h (Subacute toxicity test; mouse, in vivo, C57BL/6 male mice, oral, 7 days, highest dosage tested, read-out: Highest dosage with good tolerance)?
The MTD at 168 h was 200 mg/kg.

What about the “mRNA expression of GW4064-induced FXR target gene Shp” value ([1]; Fxr^△IE organoids) of the same compound?
The value was “not observed”.

What about the “mRNA expression of GW4064-induced FXR target gene Shp” value ([1]; WT organoids) of the same compound?
The value was “effectively reversed”.

What about the “Hepatic FXR signaling” value [2] of the same compound?
Its value is “not hepatic FXR signaling”.

And the “mRNA expression levels of TCA-induced FXR target genes Shp and Fgf15 (intestine)” value [2]?
Its value is “decreased”.

What about the inhibition at 10 µM (PPARδ) of the same compound?
The inhibition at 10 µM was 18.9%.

What about the inhibition at 10 µM (PPARγ) of the same compound?
The inhibition at 10 µM was 14%.
